For the assay, the system named is BDF1 mice, P388/ADR leukemia ip, median survival T/C. The experiment in a line: NCI In Vivo Anticancer Drug Screen. Data for tumor model P388 Leukemia resistant to Adriamycin; NSC 123127, Developed at Scr 06 and 41 (intraperitoneal) in B6D2F1 (BDF1) mice. Conditions: endpoint: median survival time, higher = longer survival. The procedure:
The antitumor activity of compounds was measured in mice bearing transplantable tumors. Survival or tumor size were measured and the results are expressed as the measurement made in the treated group (T) divided by the measurement made in the vehicle treated control group (C). The tumor model used in this assay is P388 Leukemia resistant to Adriamycin; NSC 123127, Developed at Scr 06 and 41 (intraperitoneal) in B6D2F1 (BDF1) mice

Where [1] appears, read: dose: 4.32 mg/kg/injection, schedule: Q04DX003 (ip), vehicle: other.
Where [2] appears, read: dose: 7.2 mg/kg/injection, schedule: Q04DX003 (ip), vehicle: other.
The mark [3] stands for this setting: dose: 12.0 mg/kg/injection, schedule: Q04DX003 (ip), vehicle: other.
[4] abbreviates: dose: 18.0 mg/kg/injection, schedule: Q04DX003 (ip), vehicle: saline.

The results in this text go back to PubChem BioAssay AID182 (DTP/NCI, 2004).

Inconclusive results and toxic doses are left out.

On to `CC[C@@]1(O)C[C@H](OC2CC(N(C)C)C(O)C(C)O2)c2c(cc3c(c2O)C(=O)c2c(O)ccc(O)c2C3=O)[C@H]1C(=O)OC` (some centres undefined), for which the T/C by setting is: under setting [1], 110 % of control; under setting [2], 109 % of control; under setting [3], 104 % of control; (dose: 20.0 mg/kg/injection, schedule: Q04DX003 (ip), vehicle: other) 110 % of control.
Turning to `CO[C@H]1Nc2c(ccc(C)c2O)C(=O)N2C=C(/C=C/C(N)=O)C[C@@H]12`, the T/C runs as follows: (dose: 216.0 micrograms/kg/injection, schedule: Q04DX003 (ip), vehicle: saline + alcohol) 154 % of control; (dose: 252.0 micrograms/kg/injection, schedule: Q04DX003 (ip), vehicle: saline + alcohol) 194 % of control; (dose: 360.0 micrograms/kg/injection, schedule: Q04DX003 (ip), vehicle: saline + alcohol) 176 % of control; (dose: 420.0 micrograms/kg/injection, schedule: Q04DX003 (ip), vehicle: saline + alcohol) 176 % of control; (dose: 600.0 micrograms/kg/injection, schedule: Q04DX003 (ip), vehicle: saline + alcohol) 90 % of control.
For `COc1ccc(CC2C(=O)NC(C)C(=O)N(C)C3Cc4ccc(cc4)Oc4cc(ccc4O)CC(C(=O)NC(C)C(=O)NC(C)C(=O)N2C)N(C)C3=O)cc1` (centres undefined), the T/C is 109 % of control under setting [1], 94 % of control under setting [2] and 88 % of control under setting [3].
For `Nc1ncn(C2OC(CO)C(O)C2O)c(=O)n1` (centres undefined), the T/C by setting is: (dose: 6.48 mg/kg/injection, schedule: Q04DX003 (ip), vehicle: saline) 210 % of control; (dose: 10.8 mg/kg/injection, schedule: Q04DX003 (ip), vehicle: saline) 191 % of control; under setting [4], 184 % of control; (dose: 30.0 mg/kg/injection, schedule: Q04DX003 (ip), vehicle: saline) 87 % of control.
For `S=c1nc[nH]c2nc[nH]c12`, the T/C was 100 % of control (dose: 43.2 mg/kg/injection, schedule: Q01DX009 (ip), vehicle: alkali diluted with saline) and 105 % of control (dose: 72.0 mg/kg/injection, schedule: Q01DX009 (ip), vehicle: alkali diluted with saline).
Regarding `Nc1nncs1`, the T/C is 199 % of control (dose: 173.0 mg/kg/injection, schedule: Q04DX003 (ip), vehicle: other) and 90 % of control (dose: 288.0 mg/kg/injection, schedule: Q04DX003 (ip), vehicle: other).
For `CCC1(O)CC2CN(CCc3c([nH]c4ccccc34)C(C(=O)OC)(c3cc4c(cc3OC)N(C)C3C(O)(C(N)=O)C(O)C5(CC)C=CCN6CCC43C65)C2)C1` (centres undefined) (tested in a mixture with another compound), the T/C by setting is: (dose: 0.65 mg/kg/injection, schedule: Q04DX003 (ip), vehicle: saline) 107 % of control; (dose: 1.08 mg/kg/injection, schedule: Q04DX003 (ip), vehicle: saline) 111 % of control; (dose: 1.8 mg/kg/injection, schedule: Q04DX003 (ip), vehicle: saline) 101 % of control; (dose: 3.0 mg/kg/injection, schedule: Q04DX003 (ip), vehicle: saline) 86 % of control.
With `CO[C@H](C(=O)[C@@H](O)[C@@H](C)O)[C@@H]1Cc2cc3cc(OC4CC(OC5CC(O)C(O)C(C)O5)C(O)C(C)O4)c(C)c(O)c3c(O)c2C(=O)[C@H]1OC1CC(OC2CC(OC3CC(C)(O)C(O)C(C)O3)C(O)C(C)O2)C(O)C(C)O1` (some centres undefined), the T/C by setting is: (dose: 0.32 mg/kg/injection, schedule: Q01DX005 (ip), vehicle: water) 91 % of control; (dose: 0.54 mg/kg/injection, schedule: Q01DX005 (ip), vehicle: water) 95 % of control; (dose: 0.65 mg/kg/injection, schedule: Q04DX003 (ip), vehicle: water) 89 % of control.
Consider `CO[C@H]1C[C@](C)(O)Cc2cc3c(c(O)c21)C(=O)c1c(O)cc2c(c1C3=O)O[C@@H]1O[C@@]2(C)[C@H](O)[C@@H](N(C)C)[C@@H]1O`, for which the T/C is 112 % of control (dose: 18.0 mg/kg/injection, schedule: Q04DX003 (ip), vehicle: lactate); 116 % of control (dose: 30.0 mg/kg/injection, schedule: Q04DX003 (ip), vehicle: lactate); 94 % of control (dose: 50.0 mg/kg/injection, schedule: Q04DX003 (ip), vehicle: lactate).
In the case of `COc1cc2cc3c4cc(OC)c(OC)cc4cc[n+]3c(C)c2cc1OC` (tested in a mixture with another compound), the T/C is, setting by setting: (dose: 86.4 mg/kg/injection, schedule: Q04DX003 (ip), vehicle: other) 103 % of control; (dose: 144.0 mg/kg/injection, schedule: Q04DX003 (ip), vehicle: other) 95 % of control.
For `CCN(CC)CCNc1ccc(CO)c2sc3ccccc3c(=O)c12`, the T/C was 93 % of control (dose: 17.3 mg/kg/injection, schedule: Q01DX009 (ip), vehicle: water); 108 % of control (dose: 25.2 mg/kg/injection, schedule: Q01DX009 (ip), vehicle: water); 100 % of control (dose: 28.8 mg/kg/injection, schedule: Q01DX009 (ip), vehicle: water); 117 % of control (dose: 42.0 mg/kg/injection, schedule: Q01DX009 (ip), vehicle: water); 104 % of control (dose: 48.0 mg/kg/injection, schedule: Q01DX009 (ip), vehicle: water); 104 % of control (dose: 70.0 mg/kg/injection, schedule: Q01DX009 (ip), vehicle: water). Moreover, the T/C (dose: 117.0 mg/kg/injection, schedule: Q01DX009 (ip), vehicle: water) was 88 % of control.
Turning to `COC1C(O)C(C)OC(OC2C(Oc3cccc4c(O)c5c(=O)oc6ccc(C)c7c(=O)oc(c34)c5c67)OC(C)C(O)C2O)C1O` (centres undefined), the T/C (dose: 43.2 mg/kg/injection, schedule: Q04DX003 (ip), vehicle: Klucel (hydroxypropylcellulose) (HPC)) was 87 % of control.
Turning to `CC[C@H]1CN2CCc3cc(OC)c(OC)cc3[C@@H]2C[C@@H]1C[C@H]1NCCc2cc(OC)c(OC)cc21`, the T/C is 106 % of control (dose: 7.78 mg/kg/injection, schedule: Q04DX003 (ip), vehicle: saline); 94 % of control (dose: 9.0 mg/kg/injection, schedule: Q04DX003 (ip), vehicle: saline); 114 % of control (dose: 13.0 mg/kg/injection, schedule: Q04DX003 (ip), vehicle: saline); 100 % of control under setting [4]; 106 % of control (dose: 21.6 mg/kg/injection, schedule: Q04DX003 (ip), vehicle: saline).
With `CSCS(=O)C[C@H](CO)NC(=O)/C=C/c1c(C)[nH]c(=O)[nH]c1=O` (some centres undefined), the T/C by setting is: (dose: 0.72 mg/kg/injection, schedule: Q04DX003 (ip), vehicle: saline) 88 % of control; (dose: 0.86 mg/kg/injection, schedule: Q04DX003 (ip), vehicle: saline) 100 % of control; (dose: 1.2 mg/kg/injection, schedule: Q04DX003 (ip), vehicle: saline) 86 % of control; (dose: 1.44 mg/kg/injection, schedule: Q04DX003 (ip), vehicle: saline) 114 % of control; (dose: 2.0 mg/kg/injection, schedule: Q04DX003 (ip), vehicle: saline) 86 % of control; (dose: 2.4 mg/kg/injection, schedule: Q04DX003 (ip), vehicle: saline) 119 % of control. The T/C by setting is: (dose: 173.0 micrograms/kg/injection, schedule: Q01DX009 (ip), vehicle: saline) 99 % of control; (dose: 288.0 micrograms/kg/injection, schedule: Q01DX009 (ip), vehicle: saline) 99 % of control; (dose: 480.0 micrograms/kg/injection, schedule: Q01DX009 (ip), vehicle: saline) 95 % of control.
On to `CC[C@]1(O)C[C@H](OC2CC(N(C)C)C(OC3CC(O)C(O)C(C)O3)C(C)O2)c2c(cc3c(c2O)C(=O)c2c(O)ccc(O)c2C3=O)[C@H]1C(=O)OC` (some centres undefined), for which the T/C is, setting by setting: (dose: 3.46 mg/kg/injection, schedule: Q04DX003 (ip), vehicle: other) 106 % of control; (dose: 5.76 mg/kg/injection, schedule: Q04DX003 (ip), vehicle: other) 102 % of control; (dose: 9.6 mg/kg/injection, schedule: Q04DX003 (ip), vehicle: other) 93 % of control.
Consider `CN(Cc1cnc2nc(N)nc(N)c2n1)c1ccc(C(=O)N[C@@H](CCC(=O)O)C(=O)O)cc1`, for which the T/C by setting is: (dose: 10.8 mg/kg/injection, schedule: Q04DX003 (ip), vehicle: sodium bicarbonate) 158 % of control; (dose: 18.0 mg/kg/injection, schedule: Q04DX003 (ip), vehicle: sodium bicarbonate) 188 % of control; (dose: 30.0 mg/kg/injection, schedule: Q04DX003 (ip), vehicle: sodium bicarbonate) 166 % of control; (dose: 50.0 mg/kg/injection, schedule: Q04DX003 (ip), vehicle: sodium bicarbonate) 111 % of control.
As for `O=C1c2ccccc2C(=O)c2c(NCCNCCO)ccc(NCCNCCO)c21`, the T/C runs as follows: (dose: 13.0 mg/kg/injection, schedule: Q04DX003 (ip), vehicle: saline + alcohol) 105 % of control; (dose: 21.6 mg/kg/injection, schedule: Q04DX003 (ip), vehicle: saline + alcohol) 104 % of control; (dose: 36.0 mg/kg/injection, schedule: Q04DX003 (ip), vehicle: saline + alcohol) 98 % of control.
